Data reported in EP3952873B1 (priority 2019, dated 2020).
“Also recorded” adds a separate entry of the source.

Columns and labels:
LAT-1 [1] = molecular target: T1, LAT-1 (Homo sapiens, UniProt Q01650); assay: LAT-1 [3H]leucine uptake in HEK293T cells; type: cell-based; settings: HEK293T cells endogenously expressing LAT-1
T1 construct: endogenous in cells; host or cells: HEK293T
Source text: (§1) To test selected prodrugs for substrate activity at LAT-1, we characterised the uptake and efflux of [^3H]leucine in the presence of compounds. For this purpose we used HEK293T cells endogenously expressing a functionally competent LAT-1, and performed assays according to Chien et al., 2018 to measure A) uptake and B) relative exchange efflux rate (L-leucine as control).

LAT-1 [2] = molecular target: T1, LAT-1; assay: LAT-1 relative exchange efflux of [3H]leucine in HEK293T cells; type: cell-based; settings: HEK293T cells endogenously expressing LAT-1
Source text: as §1

[3] = test system: GHB binding sites i.e. CaMK2a; settings: previously published; cited from earlier work
[4] = type: in vitro ADME, mouse; settings: plasma and liver microsomes; converted to parent JON-11 instantly
Experimental: (§2) Metabolic stability analysis was performed on a Bruker Avance Ultra High Performance Liquid Chromatography (UHPLC) (Bruker Daltonik, Bremen, Germany) equipped with a CTC-PAL-xt autosampler with cooled sample compartments (10 °C) and a column oven held at 40 °C. The UHPLC eluate was directed to a Bruker Evoq Elite triple quad-ropole MS equipped with a heated electrospray ionization source operated in positive ionization mode. Separation of 15 µL sample was obtained using a Phenomenex (Phenomenex, Torrance, CA, USA) Kinetex XB-C18 column (50 mm × 2.1 mm i.d., 1.7 µm particle size) equipped with a guard column. The analytes were separated using a solvent system consisting of water/acetonitrile (95:5, v/v) (eluent A) and water/acetonitrile (5:95, v/v) (eluent B); both acidified with 0.1% formic acid. The eluent flow rate was maintained at 0.4 mL/min with the following gradient elution profile: 0 min: 0% B; 5 min: 100% B; 6 min: 100% B, followed by three min equilibration at 0% B. Two ion transitions were monitored for all analytes and internal standard.
The mouse liver microsome assay was performed by transferring 25 µL of a 20 µM solution of the test compound (0.5% DMSO), dissolved in potassium phosphate monobasic buffer (pH 7.4) containing 3 mM MgCl2, to 9 wells in a microtiter plate. To each well, […] of a 0.5 mg/mL mouse liver (Sigma Aldrich) in buffer was added, and the microtiter plate were pre-incubated for 5 min at 37 °C in a plate shaker at 600 rpm. After pre-incubation, 50 µL 37 °C NADPH regenerating system, consisting of 2 mM NADP+, 10mM glucose-6-phosphate, and 2 U/mL glucose-6-phosphate dehydrogenase dissolved in buffer, was added to start the assay. In triplicates, immediately after adding the NADPH solution, 75 µL was transferred to an Eppendorf tube, containing […] ice-cold acetonitrile with 400 ng/mL internal standard (7). Similarly, samples were prepared after 30 min and 60 min incubation at 37 °C. The samples were vortexed for 30 seconds and centrifuged at 16,000 × g for 10 minutes before analyzing the supernatant. The individual analyte responses were normalized to the internal standard. Diazepam was used as positive control.
The mouse […] assay was performed by transferring 75 µL of a 10 µM solution of the test compound (0.5% DMSO), dissolved in PBS buffer (pH 7.4), to 9 wells in a microtiter plate. To each well, 75 µL mouse plasma, harvested from in-house mice into K2-EDTA tubes and centrifuged at 1,600 × g, was added. […]
(§3) The metabolic stabilities of JON-11 and the prodrugs 1a, 8-12, 19 and 20 were determined in vitro in rat plasma and rat liver microsomes. […] The corresponding loss of prodrug compounds and formation of parent drug JON-11 was determined by UHPLC-MS.

[5] = molecular target: T2, GHB high-affinity binding site/CaMK2a (Rattus norvegicus, UniProt P11275); assay: Rat brain membrane [3H]NCS-382 binding assay; settings: for Ki: 16 nM [3H]NCS-382, rat cortical synaptic membranes, pH 6.0, 0-4 °C
T2 construct: rat (Sprague-Dawley) cortical synaptic membranes (P2 synaptosomes) were prepared; from tissue; host or cells: rat (Sprague-Dawley) cortical synaptic membranes (P2 synaptosomes)
Experimental: According to previously published protocols, rat (Sprague-Dawley) cortical synaptic membranes (P2 synaptosomes) were prepared and stored at -20 °C until the day of assay (Wellendorph et al., 2005). Membranes were then washed three times with binding buffer (50 mM potassium phosphate buffer pH 6.0). The binding protocol was performed in 96-well microplates. In brief, compounds were incubated with 16 nM [^3H]NCS-382 radioligand and membranes for 60 min at 0-4 °C, filtered through GF/C filter plates (PerkinElmer) using a 96-well harvester (Packard), rapidly washed three times with ice-cold binding buffer, and filter plates dried. CPM values were determined using liquid scintillation counting in a TopCount NXT Microplate Scintillation & Luminescence Counter (PerkinElmer). Curves were generated using non-linear regression (GraphPad Prism 7, GraphPad Prism Software, San Diego, CA, USA).
JON-11, related analogues, and pro-JON-11(10) were tested in the [^3H]NCS-382 binding assay (Wellendorph et al., 2005).

in vivo = assay: in vivo; parameters: species or system mice; settings: C57BL/6JRj, mouse, ip, male mice, dose 10 mg/kg i.p., 30 min, read-out: B/P ratio
Experimental: To evaluate the ability of pro-JON-11 (10) and JON-11 to penetrate the blood-brain barrier, a brain-to-plasma distribution ratio (B/P ratio) was obtained. All subjects were male C57BL/6JRj mice (24-26 g, Janvier Labs, France) housed in groups of three-four with ad libitum access to food and water. The mice were maintained under diurnal conditions (12-h light/dark cycle with lights on at 7 AM) in a temperature (22±1 °C) and humidity-controlled room (50±10%). Ethical permission for the procedures used in this in vivo study was granted by the Danish Animal Experiments Inspectorate.
Compounds were dissolved in PEG-400 (Sigma) at 20% of the final required volume. The final volume was then made up by 10% (w/v) hydroxypropyl-beta-cyclodextrin (Sigma Aldrich) in sterile saline. The solution was sonicated for 5 min. The JON-11 solution was pH-adjusted to 7.4 with 0.2% 2M NaOH.
Both compounds were injected i.p. at a dose of 10 mg/kg (n=3 for each compound). […] After 30 min, the animals were sacrificed by decapitation, trunk blood was collected in EDTA-coated tubes and the brain was gently removed. Blood and tissues were temporarily stored on ice until plasma and brain homogenate preparation. Blood plasma was separated from cells by centrifugation for 10 min at 1,500 x g at 4 °C and plasma harvested. […]
Plasma and brain exposure of JON-11 and pro-JON-11 were evaluated in male mice. […]

[6] = type: in vitro ADME, mouse; settings: rat liver microsomes as printed
Experimental: as §2, with “standard. […]” for “standard.”
as §3

[7] = Mouse plasma assay (metabolic stability); type: in vitro ADME; settings: rat plasma as printed
Experimental: as §2, with “standard. […]” for “standard.”
as §3

T2 sequence (P11275 whole entry): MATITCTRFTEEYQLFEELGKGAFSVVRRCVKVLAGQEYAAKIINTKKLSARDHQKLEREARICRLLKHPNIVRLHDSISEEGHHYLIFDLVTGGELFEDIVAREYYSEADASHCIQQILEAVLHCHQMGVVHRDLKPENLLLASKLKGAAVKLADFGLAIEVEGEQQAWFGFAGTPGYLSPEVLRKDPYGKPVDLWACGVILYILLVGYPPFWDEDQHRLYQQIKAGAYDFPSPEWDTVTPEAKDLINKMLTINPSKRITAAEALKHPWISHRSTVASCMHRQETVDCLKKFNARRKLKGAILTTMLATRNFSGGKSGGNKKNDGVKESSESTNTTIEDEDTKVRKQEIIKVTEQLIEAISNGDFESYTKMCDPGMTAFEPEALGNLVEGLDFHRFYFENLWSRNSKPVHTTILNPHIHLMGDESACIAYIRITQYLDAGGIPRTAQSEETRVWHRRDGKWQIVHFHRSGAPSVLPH
T1 sequence (Q01650 whole entry): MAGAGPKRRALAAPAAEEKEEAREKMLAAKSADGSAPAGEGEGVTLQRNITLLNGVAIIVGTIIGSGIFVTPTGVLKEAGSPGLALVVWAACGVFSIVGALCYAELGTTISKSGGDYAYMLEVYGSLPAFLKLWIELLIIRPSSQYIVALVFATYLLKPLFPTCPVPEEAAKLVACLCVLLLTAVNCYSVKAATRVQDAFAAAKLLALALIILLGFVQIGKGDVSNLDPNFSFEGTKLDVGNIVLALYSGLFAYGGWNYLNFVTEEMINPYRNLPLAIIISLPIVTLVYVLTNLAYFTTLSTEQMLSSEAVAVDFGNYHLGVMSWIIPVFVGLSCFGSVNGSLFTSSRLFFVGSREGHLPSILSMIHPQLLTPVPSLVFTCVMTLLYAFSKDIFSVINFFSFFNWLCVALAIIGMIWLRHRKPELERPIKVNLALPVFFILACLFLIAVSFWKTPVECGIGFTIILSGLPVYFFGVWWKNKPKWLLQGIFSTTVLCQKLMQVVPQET
T1 sequence (P08195 102-630 partner): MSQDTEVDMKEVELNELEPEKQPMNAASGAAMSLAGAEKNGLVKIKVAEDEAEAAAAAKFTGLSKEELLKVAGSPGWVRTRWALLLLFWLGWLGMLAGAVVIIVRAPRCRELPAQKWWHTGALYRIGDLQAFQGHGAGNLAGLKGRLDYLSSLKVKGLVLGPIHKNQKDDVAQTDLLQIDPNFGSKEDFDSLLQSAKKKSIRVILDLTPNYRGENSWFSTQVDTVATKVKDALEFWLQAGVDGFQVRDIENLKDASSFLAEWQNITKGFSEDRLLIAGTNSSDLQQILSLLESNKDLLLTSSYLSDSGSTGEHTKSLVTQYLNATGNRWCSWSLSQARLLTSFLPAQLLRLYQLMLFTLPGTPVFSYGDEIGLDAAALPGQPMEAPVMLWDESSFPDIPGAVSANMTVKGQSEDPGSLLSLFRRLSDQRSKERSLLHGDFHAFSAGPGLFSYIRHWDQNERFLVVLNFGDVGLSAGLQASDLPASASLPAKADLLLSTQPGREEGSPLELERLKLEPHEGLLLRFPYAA

In the case of `N[C@@H](Cc1cccc(NC(=O)Cc2cn3nc(-c4ccc(Cl)cc4)ccc3n2)c1)C(=O)O` [compound 11, (S)-2-amino-3-(3-(2-(6-(4-chlorophenyl)imidazo[1,2-b]pyridazin-2-yl)acetamido)phenyl)propanoic acid], the “competition with [3H]leucine uptake at LAT-1” value (LAT-1 [1]) is reported as “LAT1 inhibitor; also recorded: competes” and the “exchange for [3H]leucine (relative exchange efflux)” value (LAT-1 [2]) is reported as “cannot be exchanged”.
In the case of `O=C(O)C1=CC(O)CC1` (stereo not shown) [HOCPCA, 3-hydroxycyclopent-1-enecarboxylic acid], the “affinity relative to GHB” value [3] is listed as 27 times.
With `CCOC(=O)Cc1cn2nc(-c3ccc(Cl)cc3)ccc2n1` [1a, ethyl 2-(6-(4-chlorophenyl)imidazo[1,2-b]pyridazin-2-yl)acetate] the “chemical/metabolic stability of prodrug” value [4] was “highly chemical/metabolic unstable”.
Work on `O=C(O)Cc1cn2nc(-c3ccc(Cl)c(Cl)c3)ccc2n1` [compound 7, 2-(6-(3,4-Dichlorophenyl)imidazo[1,2-b]pyridazin-2-yl)acetic acid] yielded a Ki [5] of 0.19 µM.
With `CC(C)(C)C(=O)OCOC(=O)Cc1cn2nc(-c3ccc(Cl)cc3)ccc2n1` [compound 9, (2-(6-(4-Chlorophenyl)imidazo[1,2-b]pyridazin-2-yl)acetoxy)methyl pivalate] the “chemical/metabolic stability of prodrug” value [4] was “highly chemical/metabolic unstable”.
In the case of `COc1ccc(-c2ccc3nc(CC(=O)O)cn3n2)cc1` [compound 6, 2-(6-(4-Methoxyphenyl)imidazo[1,2-b]pyridazin-2-yl)acetic acid], the Ki [5] is reported as 0.83 µM.
Molecule `O=C(O)Cc1cn2nc(-c3ccc(OCc4ccccc4)cc3)ccc2n1` [compound 4, 2-(6-(4-(benzyloxy)phenyl)imidazo[1,2-b]pyridazin-2-yl)acetic acid] has a Ki [5] of 2.2 µM.
`O=C(O)Cc1cn2nc(-c3cccc(OCc4ccccc4)c3)ccc2n1` [compound 3] showed a Ki [5] of 0.51 µM.
Molecule `COc1cccc(-c2ccc3nc(CC(=O)O)cn3n2)c1` [compound 5, 2-(6-(3-Methoxyphenyl)imidazo[1,2-b]pyridazin-2-yl)acetic acid] has a Ki [5] of 0.44 µM.
For `O=C(O)CCC(O)c1ccc(OCc2ccccc2)cc1` (stereo not shown) [BnOPh-GHB], the “affinity relative to GHB” value [3] is given as 39 times.
In the case of `O=C(O)Cc1cn2nc(-c3cccc(Cl)c3)ccc2n1` [compound 2, 2-(6-(3-Chlorophenyl)imidazo[1,2-b]pyridazin-2-yl)acetic acid], the Ki [5] is reported as 0.23 µM.
In the case of `CC(=O)OCOC(=O)Cc1cn2nc(-c3ccc(Cl)cc3)ccc2n1` [compound 8, Acetoxymethyl 2-(6-(4-chlorophenyl)imidazo[1,2-b]pyridazin-2-yl)acetate], the “chemical/metabolic stability of prodrug” value [4] is reported as “highly chemical/metabolic unstable”.
In the case of `N[C@@H](Cc1ccc(NC(=O)Cc2cn3nc(-c4ccc(Cl)cc4)ccc3n2)cc1)C(=O)O` [compound 12, (S)-2-amino-3-(4-(2-(6-(4-chlorophenyl)imidazo[1,2-b]pyridazin-2-yl)acetamido)phenyl)propanoic acid], the “competition with [3H]leucine uptake at LAT-1” value (LAT-1 [1]) is reported as “not”.
For `CC(C)(C)OC(=O)Cc1cn2nc(-c3ccc(Cl)cc3)ccc2n1` [compound 10, tert.Butyl 2-(6-(4-chlorophenyl)imidazo[1,2-b]pyridazin-2-yl)acetate], the Kp at 30 min (in vivo) was 2.24, the “displacement of radioligand binding” value ([5]; [3H]NCS-382, concentrations up to 10 µM) was “failed to displace radioligand binding” and the “stability in liver microsomes” value [6] was “high stability”. The half-life at 5 µM ([7]; pH 7.4) was ~1 h and the stability in plasma [7] was “fair stability”.
